According to patent US11987586B1 (TAKEDA PHARMACEUTICAL COMPANY LIMITED, priority 2022, dated 2024):

Target: T1, human OX2 receptor (Homo sapiens, UniProt O43614)
T1 construct: expressed in transfected cells
T1 sequence (O43614 1-444): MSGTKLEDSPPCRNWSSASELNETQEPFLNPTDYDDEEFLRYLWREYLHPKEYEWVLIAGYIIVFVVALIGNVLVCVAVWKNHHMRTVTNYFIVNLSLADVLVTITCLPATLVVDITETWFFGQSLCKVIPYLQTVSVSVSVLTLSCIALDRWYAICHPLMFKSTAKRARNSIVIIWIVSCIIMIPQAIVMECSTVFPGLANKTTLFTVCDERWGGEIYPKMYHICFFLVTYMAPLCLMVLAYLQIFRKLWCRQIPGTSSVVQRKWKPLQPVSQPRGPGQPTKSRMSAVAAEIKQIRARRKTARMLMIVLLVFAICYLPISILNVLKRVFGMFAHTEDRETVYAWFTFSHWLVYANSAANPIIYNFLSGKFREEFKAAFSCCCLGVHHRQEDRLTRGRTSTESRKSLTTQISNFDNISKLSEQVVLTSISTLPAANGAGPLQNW
Experiment: Measurement of orexin type 2 receptor agonist activity (calcium fluorescence, Fluo-4, FDSS)
Assay type: cell-based
Settings: 3 uM test compound; CHO cells expressing human OX2 receptor; DMSO = 0%, 10 nM orexin A (human) = 100%
Outline: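 Agonist activity (%) was normalised to the response to 10 nM final human orexin A (100%) and to the DMSO vehicle (0%). The response was measured as the Fluo-4 calcium signal, read kinetically over 1 min 40 s after compound addition to Fluo-4/probenecid-loaded stable CHO-K1 clones expressing human OX2 (aa 1-444).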

SMILES	OX2R agonist activity (3 uM, %)
O=C1N(c2noc3cccc(-c4c(F)cccc4F)c23)CC[C@H]2N1C[C@@H](NS(=O)(=O)C1CC1)C2(F)F [Example 285, N-{(4aR,6R)-2-[4-(2,6-difluorophenyl)-1,2-benzoxazol-3-yl]-5,5-difluoro-1-oxooctahydropyrrolo[1,2-c]pyrimidin-6-yl}cyclopropanesulfonamide]	105%
Cc1cc2onc(-n3cc4n(c3=O)C[C@@H](NS(=O)(=O)N(C)C)C4(F)F)c2c(-c2c(F)cccc2F)n1 [Example 286, N′-{(6R)-2-[4-(2,6-difluorophenyl)-6-methyl[1,2]oxazolo[4,5-c]pyridin-3-yl]-7,7-difluoro-3-oxo-2,5,6,7-tetrahydro-3H-pyrrolo[1,2-c]imidazol-6-yl}-N,N-dimethylsulfuric diamide]	105%
O=C1N(c2noc3cc(F)cc(-c4c(F)cccc4F)c23)C[C@H]2N1C[C@@H](NS(=O)(=O)CF)C2(F)F [Example 287, N-{(6R,7aR)-2-[4-(2,6-difluorophenyl)-6-fluoro-1,2-benzoxazol-3-yl]-7,7-difluoro-3-oxohexahydro-1H-pyrrolo[1,2-c]imidazol-6-yl}-1-fluoromethanesulfonamide]	101%
O=c1n(-c2noc3cc(F)cc(-c4c(F)cc(F)cc4F)c23)cc2n1C[C@@H](NS(=O)(=O)CF)C2(F)F [Example 288, N-{(6R)-7,7-difluoro-2-[6-fluoro-4-(2,4,6-trifluorophenyl)-1,2-benzoxazol-3-yl]-3-oxo-2,5,6,7-tetrahydro-3H-pyrrolo[1,2-c]imidazol-6-yl}-1-fluoromethanesulfonamide]	101%
CS(=O)(=O)N[C@@H]1CN2C(=O)N(c3noc4cccc(-c5ccc(F)cc5F)c34)CC[C@@H]2C1(F)F [Example 290, N-{(4aR,6R)-2-[4-(2,4-difluorophenyl)-1,2-benzoxazol-3-yl]-5,5-difluoro-1-oxooctahydropyrrolo[1,2-c]pyrimidin-6-yl}methanesulfonamide]	106%
CS(=O)(=O)N[C@@H]1CN2C(=O)N(c3noc4cccc(-c5ccccc5Cl)c34)CC[C@@H]2C1(F)F [Example 291, N-{(4aR,6R)-2-[4-(2-chlorophenyl)-1,2-benzoxazol-3-yl]-5,5-difluoro-1-oxooctahydropyrrolo[1,2-c]pyrimidin-6-yl}methanesulfonamide]	106%
CS(=O)(=O)N[C@@H]1CN2C(=O)N(c3noc4cccc(-c5cc(F)ccc5F)c34)CC[C@@H]2C1(F)F [Example 292, N-{(4aR,6R)-2-[4-(2,5-difluorophenyl)-1,2-benzoxazol-3-yl]-5,5-difluoro-1-oxooctahydropyrrolo[1,2-c]pyrimidin-6-yl}methanesulfonamide]	106%
O=c1n(-c2noc3ccc(F)c(-c4c(F)cc(F)cc4F)c23)cc2n1C[C@@H](NS(=O)(=O)CF)C2(F)F [Example 293, N-{(6R)-7,7-difluoro-2-[5-fluoro-4-(2,4,6-trifluorophenyl)-1,2-benzoxazol-3-yl]-3-oxo-2,5,6,7-tetrahydro-3H-pyrrolo[1,2-c]imidazol-6-yl}-1-fluoromethanesulfonamide]	113%
COc1cc(-c2c(F)cc(F)cc2F)c2c(N3CC[C@H]4N(C[C@@H](NS(C)(=O)=O)C4(F)F)C3=O)noc2n1 [Example 294, N-{(4aR,6R)-5,5-difluoro-2-[6-methoxy-4-(2,4,6-trifluorophenyl)[1,2]oxazolo[5,4-b]pyridin-3-yl]-1-oxooctahydropyrrolo[1,2-c]pyrimidin-6-yl}methanesulfonamide]	104%
CS(=O)(=O)N[C@@H]1CN2C(=O)N(c3noc4cc(F)cc(-c5ncc(F)cc5F)c34)CC[C@@H]2C1(F)F [Example 295, N-{(4aR,6R)-2-[4-(3,5-difluoropyridin-2-yl)-6-fluoro-1,2-benzoxazol-3-yl]-5,5-difluoro-1-oxooctahydropyrrolo[1,2-c]pyrimidin-6-yl}methanesulfonamide]	113%
CS(=O)(=O)N[C@@H]1CN2C(=O)N(c3noc4cc(OC(F)F)cc(-c5c(F)cc(F)cc5F)c34)CC[C@@H]2C1(F)F [Example 296, N-{(4aR,6R)-2-[6-(difluoromethoxy)-4-(2,4,6-trifluorophenyl)-1,2-benzoxazol-3-yl]-5,5-difluoro-1-oxooctahydropyrrolo[1,2-c]pyrimidin-6-yl}methanesulfonamide]	102%
O=C1N(c2noc3cc(F)c(F)c(-c4c(F)cc(F)cc4F)c23)CC[C@H]2N1C[C@@H](NS(=O)(=O)CF)C2(F)F [Example 297, N-{(4aR,6R)-2-[5,6-difluoro-4-(2,4,6-trifluorophenyl)-1,2-benzoxazol-3-yl]-5,5-difluoro-1-oxooctahydropyrrolo[1,2-c]pyrimidin-6-yl}-1-fluoromethanesulfonamide]	107%
CCS(=O)(=O)N[C@@H]1CN2C(=O)N(c3noc4cc(C(F)F)cc(-c5c(F)cc(F)cc5F)c34)C[C@@H]2C1(F)F [Example 298, N-{(6R,7aR)-2-[6-(difluoromethyl)-4-(2,4,6-trifluorophenyl)-1,2-benzoxazol-3-yl]-7,7-difluoro-3-oxohexahydro-1H-pyrrolo[1,2-c]imidazol-6-yl}ethanesulfonamide]	105%
CCOc1cc(-c2c(F)cccc2F)c2c(N3CC[C@H]4N(C[C@@H](NS(=O)(=O)CC)C4(F)F)C3=O)noc2c1 [Example 299, N-{(4aR,6R)-2-[4-(2,6-difluorophenyl)-6-ethoxy-1,2-benzoxazol-3-yl]-5,5-difluoro-1-oxooctahydropyrrolo[1,2-c]pyrimidin-6-yl}ethanesulfonamide]	104%
CCOc1cc(-c2c(F)cccc2F)c2c(N3CC[C@H]4N(C[C@@H](NS(=O)(=O)C5CC5)C4(F)F)C3=O)noc2c1 [Example 300, N-{(4aR,6R)-2-[4-(2,6-difluorophenyl)-6-ethoxy-1,2-benzoxazol-3-yl]-5,5-difluoro-1-oxooctahydropyrrolo[1,2-c]pyrimidin-6-yl}cyclopropanesulfonamide]	105%

Next, values leading:

OX2R agonist activity (3 uM, %)	SMILES
98%	CNS(=O)(=O)N[C@@H]1Cn2c(cn(-c3noc4ccc(F)c(-c5c(F)cc(F)cc5F)c34)c2=O)C1(F)F [Example 301, N-{(6R)-7,7-difluoro-2-[5-fluoro-4-(2,4,6-trifluorophenyl)-1,2-benzoxazol-3-yl]-3-oxo-2,5,6,7-tetrahydro-3H-pyrrolo[1,2-c]imidazol-6-yl}-N′-methylsulfuric diamide]
103%	CNS(=O)(=O)N[C@@H]1Cn2c(cn(-c3noc4cc(C)nc(-c5c(F)cccc5F)c34)c2=O)C1(F)F [Example 302, N-{(6R)-2-[4-(2,6-difluorophenyl)-6-methyl[1,2]oxazolo[4,5-c]pyridin-3-yl]-7,7-difluoro-3-oxo-2,5,6,7-tetrahydro-3H-pyrrolo[1,2-c]imidazol-6-yl}-N′-methylsulfuric diamide]
103%	CCS(=O)(=O)N[C@@H]1CN2C(=O)N(c3noc4cc(OC(F)F)cc(-c5c(F)cc(F)cc5F)c34)CC[C@@H]2C1(F)F [Example 303, N-{(4aR,6R)-2-[6-(difluoromethoxy)-4-(2,4,6-trifluorophenyl)-1,2-benzoxazol-3-yl]-5,5-difluoro-1-oxooctahydropyrrolo[1,2-c]pyrimidin-6-yl}ethanesulfonamide]
117%	CCS(=O)(=O)N[C@@H]1CN2C(=O)N(c3noc4cc(F)c(F)c(-c5c(F)cc(F)cc5F)c34)CC[C@@H]2C1(F)F [Example 304, N-{(4aR,6R)-2-[5,6-difluoro-4-(2,4,6-trifluorophenyl)-1,2-benzoxazol-3-yl]-5,5-difluoro-1-oxooctahydropyrrolo[1,2-c]pyrimidin-6-yl}ethanesulfonamide]
113%	O=C1N(c2noc3cc(F)c(F)c(-c4c(F)cc(F)cc4F)c23)CC[C@H]2N1C[C@@H](NS(=O)(=O)C1CC1)C2(F)F [Example 305, N-{(4aR,6R)-2-[5,6-difluoro-4-(2,4,6-trifluorophenyl)-1,2-benzoxazol-3-yl]-5,5-difluoro-1-oxooctahydropyrrolo[1,2-c]pyrimidin-6-yl}cyclopropanesulfonamide]
101%	O=c1n(-c2noc3cc(C(F)F)cc(-c4c(F)cccc4F)c23)cc2n1C[C@@H](NS(=O)(=O)CF)C2(F)F [Example 306, N-{(6R)-2-[6-(difluoromethyl)-4-(2,6-difluorophenyl)-1,2-benzoxazol-3-yl]-7,7-difluoro-3-oxo-2,5,6,7-tetrahydro-3H-pyrrolo[1,2-c]imidazol-6-yl}-1-fluoromethanesulfonamide]
101%	CCOc1cc(-c2c(F)cc(F)cc2F)c2c(N3CC[C@H]4N(C[C@@H](NS(=O)(=O)CC)C4(F)F)C3=O)noc2c1 [Example 307, N-{(4aR,6R)-2-[6-ethoxy-4-(2,4,6-trifluorophenyl)-1,2-benzoxazol-3-yl]-5,5-difluoro-1-oxooctahydropyrrolo[1,2-c]pyrimidin-6-yl}ethanesulfonamide]
